Data as given in PMC8903829 (eLife, 2022).

How the values were obtained:
Assay type in all cases: cell-based
[1] = target: T1, hNaV1.6 (Homo sapiens, UniProt Q9UQD0); test: Automated patch-clamp, rested state 'Peak' current (Vh -120 mV)
T1 construct: expression vector containing the full-length cDNA coding for specific human and mouse sodium channel α-subunit; expressed in transfected cells
Excerpt: Holding the membrane potential at –120 mV induces most channels to reside in the resting state. […] Holding the membrane potential at –45 mV encourages channels to transition into inactivated states. Brief hyperpolarizations allow rapid recovery from inactivation for channels that are not bound to drug followed by a short 20ms test pulse to –20 mV to measure currents from unbound channels (see Materials and methods for details).
(§1) Inorm(CPD)=(ICPD−Icontrol)/(ITTX−Icontrol).

[2] = target: T2, hNaV1.6 N1877S (Homo sapiens, UniProt Q9UQD0, N1877S); test: Automated patch-clamp, patient-identified variant in Expi293F cells
T2 construct: expression vector containing the full-length cDNA coding for specific human and mouse sodium channel α-subunit; expressed in transfected cells; host or cells: Expi293F (transient, tetracycline-induced, pcDNA4/TO)
T2 sequence (Q9UQD0 whole entry N1877S): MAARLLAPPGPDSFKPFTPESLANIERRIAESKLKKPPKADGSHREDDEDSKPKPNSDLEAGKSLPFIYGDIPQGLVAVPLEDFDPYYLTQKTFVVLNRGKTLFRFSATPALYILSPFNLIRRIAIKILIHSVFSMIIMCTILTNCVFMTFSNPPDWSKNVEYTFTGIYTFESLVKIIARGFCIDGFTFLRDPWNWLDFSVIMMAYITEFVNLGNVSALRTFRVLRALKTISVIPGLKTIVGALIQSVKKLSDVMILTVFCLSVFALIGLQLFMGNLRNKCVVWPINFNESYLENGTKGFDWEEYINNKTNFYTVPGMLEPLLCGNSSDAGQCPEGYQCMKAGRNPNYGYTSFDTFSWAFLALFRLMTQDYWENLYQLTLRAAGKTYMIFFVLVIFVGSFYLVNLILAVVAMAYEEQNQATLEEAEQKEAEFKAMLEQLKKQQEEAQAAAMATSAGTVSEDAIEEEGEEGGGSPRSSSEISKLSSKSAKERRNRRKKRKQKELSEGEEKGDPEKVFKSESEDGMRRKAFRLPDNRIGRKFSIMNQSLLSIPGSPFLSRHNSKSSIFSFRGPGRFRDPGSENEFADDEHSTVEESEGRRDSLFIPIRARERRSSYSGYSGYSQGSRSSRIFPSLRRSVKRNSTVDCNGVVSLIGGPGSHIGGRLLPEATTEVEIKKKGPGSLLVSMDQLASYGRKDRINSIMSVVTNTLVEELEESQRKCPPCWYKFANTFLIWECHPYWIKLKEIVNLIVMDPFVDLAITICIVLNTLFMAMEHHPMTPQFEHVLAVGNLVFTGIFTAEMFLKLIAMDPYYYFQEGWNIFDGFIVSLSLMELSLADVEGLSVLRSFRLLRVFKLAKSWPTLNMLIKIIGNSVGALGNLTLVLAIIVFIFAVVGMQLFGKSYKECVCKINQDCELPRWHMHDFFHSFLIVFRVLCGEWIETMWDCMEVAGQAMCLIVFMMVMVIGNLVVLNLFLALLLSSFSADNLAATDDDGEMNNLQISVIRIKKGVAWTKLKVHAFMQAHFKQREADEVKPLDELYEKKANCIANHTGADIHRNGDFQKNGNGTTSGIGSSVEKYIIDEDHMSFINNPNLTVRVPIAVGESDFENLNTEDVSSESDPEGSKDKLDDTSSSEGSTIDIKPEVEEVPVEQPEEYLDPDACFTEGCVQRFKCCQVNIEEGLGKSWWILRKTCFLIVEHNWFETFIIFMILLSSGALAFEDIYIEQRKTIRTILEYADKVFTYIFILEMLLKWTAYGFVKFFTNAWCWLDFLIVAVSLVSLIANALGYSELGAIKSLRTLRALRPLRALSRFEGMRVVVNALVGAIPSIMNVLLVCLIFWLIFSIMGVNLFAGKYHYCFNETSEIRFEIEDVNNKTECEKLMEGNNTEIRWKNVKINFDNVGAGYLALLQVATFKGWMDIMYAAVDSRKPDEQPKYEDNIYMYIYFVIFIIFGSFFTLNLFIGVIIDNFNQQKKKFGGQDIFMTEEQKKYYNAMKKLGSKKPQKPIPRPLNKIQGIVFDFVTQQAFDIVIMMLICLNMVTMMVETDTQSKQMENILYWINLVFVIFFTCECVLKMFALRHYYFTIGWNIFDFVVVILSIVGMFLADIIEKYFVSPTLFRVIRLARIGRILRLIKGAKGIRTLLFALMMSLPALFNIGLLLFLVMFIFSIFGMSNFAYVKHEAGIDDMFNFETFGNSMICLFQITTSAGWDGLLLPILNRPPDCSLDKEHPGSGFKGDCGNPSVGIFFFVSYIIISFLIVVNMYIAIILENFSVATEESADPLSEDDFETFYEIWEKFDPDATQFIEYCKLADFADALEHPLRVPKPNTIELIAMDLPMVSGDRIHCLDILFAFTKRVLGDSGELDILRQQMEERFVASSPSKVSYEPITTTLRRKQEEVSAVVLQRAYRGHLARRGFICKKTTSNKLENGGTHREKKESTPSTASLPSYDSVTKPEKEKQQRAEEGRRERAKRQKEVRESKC
Protocol: (§2) For studies of mutant channels, cDNA plasmids in pcDNA4/TO Mammalian Expression Vector were transiently transfected into Expi293F cells stably expressing human FHF2b and human SCN1B subunit (polyclonal) background using ExpiFectamine 293 Transfection Kits (Gibco,Thermo Fisher Scientific CAT #: A14524). Induction was achieved using Tetracycline (Sigma Aldrich). Transfected cells were used in automated patch-clamp experiments 24 hours postinduction.
as §1

[3] = target: T3, hNaV1.6 R1872W (Homo sapiens, UniProt Q9UQD0, R1872W); test: as above
T3 construct: expression vector containing the full-length cDNA coding for specific human and mouse sodium channel α-subunit; expressed in transfected cells; host or cells: Expi293F (transient, tetracycline-induced, pcDNA4/TO)
T3 sequence (Q9UQD0 whole entry R1872W): as the sequence (Q9UQD0 whole entry N1877S) above, with R1872W, S1877N counted along it
Protocol: as §2, §1

[4] = target: T4, hNaV1.6 T767I (Homo sapiens, UniProt Q9UQD0, T767I); test: as above
T4 construct: expression vector containing the full-length cDNA coding for specific human and mouse sodium channel α-subunit; expressed in transfected cells; host or cells: Expi293F (transient, tetracycline-induced, pcDNA4/TO)
T4 sequence (Q9UQD0 whole entry T767I): as the sequence (Q9UQD0 whole entry N1877S) above, with T767I, S1877N counted along it
Protocol: as §2, §1

[5] = target: T5, hNaV1.6 N1768D (Homo sapiens, UniProt Q9UQD0, N1768D); test: as above
T5 construct: expression vector containing the full-length cDNA coding for specific human and mouse sodium channel α-subunit; expressed in transfected cells; host or cells: Expi293F (transient, tetracycline-induced, pcDNA4/TO)
T5 sequence (Q9UQD0 whole entry N1768D): as the sequence (Q9UQD0 whole entry N1877S) above, with N1768D, S1877N counted along it
Protocol: as §2, §1

[6] = target: T6, hNaV1.6 R1617Q (Homo sapiens, UniProt Q9UQD0, R1617Q); test: as above
T6 construct: expression vector containing the full-length cDNA coding for specific human and mouse sodium channel α-subunit; expressed in transfected cells; host or cells: Expi293F (transient, tetracycline-induced, pcDNA4/TO)
T6 sequence (Q9UQD0 whole entry R1617Q): as the sequence (Q9UQD0 whole entry N1877S) above, with R1617Q, S1877N counted along it
Protocol: as §2, §1

[7] = target: T7, hNaV1.6 I1327V (Homo sapiens, UniProt Q9UQD0, I1327V); test: as above
T7 construct: expression vector containing the full-length cDNA coding for specific human and mouse sodium channel α-subunit; expressed in transfected cells; host or cells: Expi293F (transient, tetracycline-induced, pcDNA4/TO)
T7 sequence (Q9UQD0 whole entry I1327V): as the sequence (Q9UQD0 whole entry N1877S) above, with I1327V, S1877N counted along it
Protocol: as §2, §1

[8] = target: T8, hNaV1.3 (Homo sapiens, UniProt Q9NY46); test: Qube 384 automated patch-clamp, inactivated-state inhibition
T8 construct: expression vector containing the full-length cDNA coding for specific human and mouse sodium channel α-subunit; expressed in transfected cells
Excerpt: (§3) All of the cell lines tested negative for mycoplasma.
as §1

[9] = target: T9, mNaV1.2 (Mus musculus, UniProt B1AWN6); test: as above
T9 construct: expression vector containing the full-length cDNA coding for specific human and mouse sodium channel α-subunit; expressed in transfected cells
Excerpt: as §3, §1

[10] = target: T10, hNaV1.2 (Homo sapiens, UniProt Q99250); test: as above
T10 construct: expression vector containing the full-length cDNA coding for specific human and mouse sodium channel α-subunit; expressed in transfected cells
T10 sequence (Q99250 whole entry): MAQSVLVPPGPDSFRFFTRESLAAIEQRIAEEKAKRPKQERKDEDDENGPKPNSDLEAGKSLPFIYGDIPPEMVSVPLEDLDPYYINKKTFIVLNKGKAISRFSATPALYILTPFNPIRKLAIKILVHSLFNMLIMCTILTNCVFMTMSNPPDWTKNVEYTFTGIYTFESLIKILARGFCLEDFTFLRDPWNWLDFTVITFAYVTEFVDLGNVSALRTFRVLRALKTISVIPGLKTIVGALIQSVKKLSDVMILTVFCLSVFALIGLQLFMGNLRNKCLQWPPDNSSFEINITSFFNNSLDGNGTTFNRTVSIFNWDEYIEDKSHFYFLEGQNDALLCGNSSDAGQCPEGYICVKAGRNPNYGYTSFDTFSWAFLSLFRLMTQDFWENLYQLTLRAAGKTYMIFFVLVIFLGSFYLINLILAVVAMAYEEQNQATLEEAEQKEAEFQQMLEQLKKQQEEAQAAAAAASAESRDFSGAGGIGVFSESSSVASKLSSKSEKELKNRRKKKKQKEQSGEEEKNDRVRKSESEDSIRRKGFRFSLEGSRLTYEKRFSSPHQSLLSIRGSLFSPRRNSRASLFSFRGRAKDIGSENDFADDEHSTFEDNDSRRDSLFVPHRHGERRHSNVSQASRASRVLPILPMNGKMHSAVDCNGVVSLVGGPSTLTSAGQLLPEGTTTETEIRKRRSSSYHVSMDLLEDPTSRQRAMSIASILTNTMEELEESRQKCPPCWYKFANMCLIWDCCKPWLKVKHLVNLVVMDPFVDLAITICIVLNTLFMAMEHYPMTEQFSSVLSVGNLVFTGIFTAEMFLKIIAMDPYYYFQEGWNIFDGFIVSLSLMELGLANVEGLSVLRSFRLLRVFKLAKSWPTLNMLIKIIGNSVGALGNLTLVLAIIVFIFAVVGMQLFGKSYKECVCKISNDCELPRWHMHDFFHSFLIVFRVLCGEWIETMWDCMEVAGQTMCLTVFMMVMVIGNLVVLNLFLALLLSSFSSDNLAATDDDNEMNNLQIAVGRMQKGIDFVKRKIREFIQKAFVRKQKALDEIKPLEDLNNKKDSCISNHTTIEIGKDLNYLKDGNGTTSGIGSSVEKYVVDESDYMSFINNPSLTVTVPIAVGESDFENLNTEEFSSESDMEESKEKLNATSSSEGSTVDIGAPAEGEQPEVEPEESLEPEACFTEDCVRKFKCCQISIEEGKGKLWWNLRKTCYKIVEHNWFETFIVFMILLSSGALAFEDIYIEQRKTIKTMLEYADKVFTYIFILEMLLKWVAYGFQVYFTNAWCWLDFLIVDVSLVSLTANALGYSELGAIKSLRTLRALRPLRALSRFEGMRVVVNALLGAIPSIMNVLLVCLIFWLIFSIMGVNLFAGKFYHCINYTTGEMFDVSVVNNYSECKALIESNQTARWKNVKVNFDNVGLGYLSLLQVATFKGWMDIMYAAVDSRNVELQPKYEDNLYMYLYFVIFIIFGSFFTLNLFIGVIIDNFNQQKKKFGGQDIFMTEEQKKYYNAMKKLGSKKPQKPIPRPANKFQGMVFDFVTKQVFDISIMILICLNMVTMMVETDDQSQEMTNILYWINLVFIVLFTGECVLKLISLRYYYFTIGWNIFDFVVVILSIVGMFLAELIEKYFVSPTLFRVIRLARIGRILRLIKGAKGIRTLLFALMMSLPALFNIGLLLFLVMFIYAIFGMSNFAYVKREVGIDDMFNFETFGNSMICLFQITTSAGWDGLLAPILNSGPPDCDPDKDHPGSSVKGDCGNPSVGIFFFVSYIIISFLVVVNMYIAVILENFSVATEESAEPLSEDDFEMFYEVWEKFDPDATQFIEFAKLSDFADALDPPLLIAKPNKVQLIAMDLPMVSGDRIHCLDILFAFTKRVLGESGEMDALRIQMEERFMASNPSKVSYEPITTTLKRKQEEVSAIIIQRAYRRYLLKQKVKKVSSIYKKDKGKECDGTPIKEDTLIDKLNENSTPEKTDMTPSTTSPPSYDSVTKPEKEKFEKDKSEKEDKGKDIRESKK
Excerpt: as §3, §1

[11] = target: T11, hNaV1.7 (Homo sapiens, UniProt Q15858); test: as above
T11 construct: expression vector containing the full-length cDNA coding for specific human and mouse sodium channel α-subunit; expressed in transfected cells
Excerpt: as §3, §1

[12] = target: T12, mNaV1.1 (Mus musculus, UniProt A2APX8); test: as above
T12 construct: expression vector containing the full-length cDNA coding for specific human and mouse sodium channel α-subunit; expressed in transfected cells
Excerpt: as §3, §1

T1 sequence (Q9UQD0 whole entry): as the sequence (Q9UQD0 whole entry N1877S) above, with S1877N counted along it
T1 sequence (Q92913 1-192 isoform Q92913-2 partner): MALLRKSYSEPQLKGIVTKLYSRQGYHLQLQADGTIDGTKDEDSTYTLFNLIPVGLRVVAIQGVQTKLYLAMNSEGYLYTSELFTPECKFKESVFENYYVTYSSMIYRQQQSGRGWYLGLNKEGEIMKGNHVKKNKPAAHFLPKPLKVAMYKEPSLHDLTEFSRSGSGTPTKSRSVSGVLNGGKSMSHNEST

Cc1cc(S(=O)(=O)Nc2cscn2)c(F)cc1N(C)[C@H]1CCN(Cc2ccccc2)C1 [NBI-921352]
IC50 [1]: 36 µM
hNav1.6 current in (352)/(Vehicle), Rested (-120mV), mean ([1]; -4 Log M): 0.8706
hNav1.6 current in (352)/(Vehicle), Rested (-120mV), mean ([1]; -4.47713 Log M): 0.4353
hNav1.6 current in (352)/(Vehicle), Rested (-120mV), mean ([1]; -4.95425 Log M): 0.1765
hNav1.6 current in (352)/(Vehicle), Rested (-120mV), mean ([1]; -5.43133 Log M): 0.09412
hNav1.6 current in (352)/(Vehicle), Rested (-120mV), mean ([1]; -5.90833 Log M): -0.01176
hNav1.6 current in (352)/(Vehicle), Rested (-120mV), mean ([1]; -6.3851 Log M): -0.02353
hNav1.6 current in (352)/(Vehicle), Rested (-120mV), mean ([1]; -6.86328 Log M): 0.1176
hNav1.6 current in (352)/(Vehicle), Rested (-120mV), mean ([1]; -7.33724 Log M): 0.05882
h1.6-N1877S 145756 norm, Mean ([2]; -5 LogM): 0.94
h1.6-N1877S 145756 norm, Mean ([2]; -5.47716 LogM): 0.93
h1.6-N1877S 145756 norm, Mean ([2]; -5.95429 LogM): 0.88
h1.6-N1877S 145756 norm, Mean ([2]; -6.4318 LogM): 0.84
h1.6-N1877S 145756 norm, Mean ([2]; -6.91009 LogM): 0.68
h1.6-N1877S 145756 norm, Mean ([2]; -7.38722 LogM): 0.53
h1.6-N1877S 145756 norm, Mean ([2]; -7.85387 LogM): 0.27
h1.6-N1877S 145756 norm, Mean ([2]; -8.33 LogM): 0.1
h1.6-R1872W 145756, Mean ([3]; -5 LogM): 0.9
h1.6-R1872W 145756, Mean ([3]; -6 LogM): 0.87
h1.6-R1872W 145756, Mean ([3]; -7 LogM): 0.55
h1.6-R1872W 145756, Mean ([3]; -8 LogM): 0.13
IC50 [4]: 31 nM
h1.6-T767I 145756, Mean ([4]; -5 LogM): 0.91
h1.6-T767I 145756, Mean ([4]; -5.47716 LogM): 0.92
h1.6-T767I 145756, Mean ([4]; -5.95429 LogM): 0.86
h1.6-T767I 145756, Mean ([4]; -6.4318 LogM): 0.86
h1.6-T767I 145756, Mean ([4]; -6.91009 LogM): 0.75
h1.6-T767I 145756, Mean ([4]; -7.38722 LogM): 0.58
h1.6-T767I 145756, Mean ([4]; -7.85387 LogM): 0.19
h1.6-T767I 145756, Mean ([4]; -8.33 LogM): 0.1
h1.6-N1768D 145756 norm, Mean ([5]; -5 LogM): 0.9
h1.6-N1768D 145756 norm, Mean ([5]; -5.47716 LogM): 0.88
h1.6-N1768D 145756 norm, Mean ([5]; -5.95429 LogM): 0.82
h1.6-N1768D 145756 norm, Mean ([5]; -6.4318 LogM): 0.74
h1.6-N1768D 145756 norm, Mean ([5]; -6.91009 LogM): 0.62
h1.6-N1768D 145756 norm, Mean ([5]; -7.38722 LogM): 0.46
h1.6-N1768D 145756 norm, Mean ([5]; -7.85387 LogM): 0.18
h1.6-N1768D 145756 norm, Mean ([5]; -8.33 LogM): 0.03
h1.6-R1617Q 145756, Mean ([6]; -5 LogM): 0.85
h1.6-R1617Q 145756, Mean ([6]; -6 LogM): 0.64
h1.6-R1617Q 145756, Mean ([6]; -7 LogM): 0.24
h1.6-R1617Q 145756, Mean ([6]; -8 LogM): 0.07
IC50 [7]: 35 nM
h1.6-I1327V 145756, Mean ([7]; -5 LogM): 0.91
h1.6-I1327V 145756, Mean ([7]; -5.47716 LogM): 0.88
h1.6-I1327V 145756, Mean ([7]; -5.95429 LogM): 0.9
h1.6-I1327V 145756, Mean ([7]; -6.4318 LogM): 0.82
h1.6-I1327V 145756, Mean ([7]; -6.91009 LogM): 0.67
h1.6-I1327V 145756, Mean ([7]; -7.38722 LogM): 0.56
h1.6-I1327V 145756, Mean ([7]; -7.85387 LogM): 0.29
h1.6-I1327V 145756, Mean ([7]; -8.33 LogM): 0.13
inhibition at 30 µM ([8]; 30 µM, NaV1.3, read-out: inhibition at the highest concentration tested): < 50%
hNaV1.3 current (352)/(Vehicle), mean ([8]; -4.52288 Log M): 0.17
hNaV1.3 current (352)/(Vehicle), mean ([8]; -5 Log M): 0.03
hNaV1.3 current (352)/(Vehicle), mean ([8]; -5.47716 Log M): 0.01
hNaV1.3 current (352)/(Vehicle), mean ([8]; -5.95429 Log M): -0.01
hNaV1.3 current (352)/(Vehicle), mean ([8]; -6.91009 Log M): 0.01
hNaV1.3 current (352)/(Vehicle), mean ([8]; -7.38722 Log M): 0.02
hNaV1.3 current (352)/(Vehicle), mean ([8]; -7.85387 Log M): -0.01
IC50 ([8]; Vh -45 mV, HEK-293): > 30 µM
mNaV1.2 current (352)/(Vehicle) ([9]; -4.22185 Log M): 0.86
mNaV1.2 current (352)/(Vehicle) ([9]; -4.69897 Log M): 0.58
mNaV1.2 current (352)/(Vehicle) ([9]; -5.17607 Log M): 0.39
mNaV1.2 current (352)/(Vehicle) ([9]; -5.65326 Log M): 0.19
mNaV1.2 current (352)/(Vehicle) ([9]; -6.13018 Log M): 0.14
mNaV1.2 current (352)/(Vehicle) ([9]; -6.6073 Log M): 0.04
mNaV1.2 current (352)/(Vehicle) ([9]; -7.08619 Log M): 0.08
mNaV1.2 current (352)/(Vehicle) ([9]; -7.56864 Log M): 0.05
IC50 ([9]; Vh -45 mV): 11 µM
hNav1.2 current (352)/(Vehicle), mean ([10]; -4 Log M): 0.88
hNav1.2 current (352)/(Vehicle), mean ([10]; -4.47713 Log M): 0.78
hNav1.2 current (352)/(Vehicle), mean ([10]; -4.95425 Log M): 0.6
hNav1.2 current (352)/(Vehicle), mean ([10]; -5 Log M): 0.66
hNav1.2 current (352)/(Vehicle), mean ([10]; -5.43133 Log M): 0.42
hNav1.2 current (352)/(Vehicle), mean ([10]; -5.47716 Log M): 0.44
hNav1.2 current (352)/(Vehicle), mean ([10]; -5.90833 Log M): 0.21
hNav1.2 current (352)/(Vehicle), mean ([10]; -5.95429 Log M): 0.14
hNav1.2 current (352)/(Vehicle), mean ([10]; -6.3851 Log M): 0.11
hNav1.2 current (352)/(Vehicle), mean ([10]; -6.86328 Log M): 0.04
hNav1.2 current (352)/(Vehicle), mean ([10]; -6.91009 Log M): 0.03
hNav1.2 current (352)/(Vehicle), mean ([10]; -7.33724 Log M): 0.01
hNav1.2 current (352)/(Vehicle), mean ([10]; -7.38722 Log M): 0
hNav1.2 current (352)/(Vehicle), mean ([10]; -7.85387 Log M): 0.01
hNav1.2 current (352)/(Vehicle), mean ([10]; -8.30103 Log M): 0.01
IC50 ([10]; Vh -45 mV, HEK-293): 6.9 µM
hNav1.7 current (352)/(Vehicle), mean ([11]; -4.52288 Log M): 0.74
hNav1.7 current (352)/(Vehicle), mean ([11]; -5 Log M): 0.41
hNav1.7 current (352)/(Vehicle), mean ([11]; -5.47716 Log M): 0.2
hNav1.7 current (352)/(Vehicle), mean ([11]; -5.95429 Log M): 0.08
hNav1.7 current (352)/(Vehicle), mean ([11]; -6.91009 Log M): 0.02
hNav1.7 current (352)/(Vehicle), mean ([11]; -7.38722 Log M): 0.01
hNav1.7 current (352)/(Vehicle), mean ([11]; -7.85387 Log M): 0.02
hNav1.7 current (352)/(Vehicle), mean ([11]; -8.30103 Log M): -0.02
IC50 ([11]; Vh -60 mV, HEK-293): 14 µM
mNaV1.1 current (352)/(Vehicle) ([12]; -4.22185 Log M): 0.61
mNaV1.1 current (352)/(Vehicle) ([12]; -4.69897 Log M): 0.28
mNaV1.1 current (352)/(Vehicle) ([12]; -5.17607 Log M): 0.19
mNaV1.1 current (352)/(Vehicle) ([12]; -5.65326 Log M): 0.12
mNaV1.1 current (352)/(Vehicle) ([12]; -6.13018 Log M): 0.05
mNaV1.1 current (352)/(Vehicle) ([12]; -6.6073 Log M): -0.03
mNaV1.1 current (352)/(Vehicle) ([12]; -7.08619 Log M): -0.01
mNaV1.1 current (352)/(Vehicle) ([12]; -7.56864 Log M): 0
IC50 ([12]; Vh -45 mV): 41 µM
